target: T1, Recombinant human KIF18A (1-467 His-tagged) (Homo sapiens, UniProt Q8NI77); experiment: KIF18A Enzyme Assay: microtubule-stimulated ATPase activity (ADP-Glo); format: biochemical; settings: 30 nM KIF18A, 30 μg/mL pig microtubules, ATP 75 μM (Km), ADP-Glo luminescence
T1 construct: Recombinant human KIF18A (1-467 His-tagged) protein; His
Method: KIF18A Enzyme Assay: Microtubule-stimulated ATPase activity assay is used to measure KIF18A enzyme activity after treatment with compound. Compounds were 2-fold serially diluted in DMSO (Sigma Inc) over 22-point concentration range. […] The assay measures ADP formed from the ATPase reaction. […] Read luminescence using EnVision microplate reader with ultra-luminescence module (Perkin Elmer Inc). Concentration-response curve-fitting and IC50 determination was performed using Genedata Screener Software (Standard 15.0.1, Genedata Inc) with a four-parameter logistic regression fit model.

T1 sequence (Q8NI77 1-467): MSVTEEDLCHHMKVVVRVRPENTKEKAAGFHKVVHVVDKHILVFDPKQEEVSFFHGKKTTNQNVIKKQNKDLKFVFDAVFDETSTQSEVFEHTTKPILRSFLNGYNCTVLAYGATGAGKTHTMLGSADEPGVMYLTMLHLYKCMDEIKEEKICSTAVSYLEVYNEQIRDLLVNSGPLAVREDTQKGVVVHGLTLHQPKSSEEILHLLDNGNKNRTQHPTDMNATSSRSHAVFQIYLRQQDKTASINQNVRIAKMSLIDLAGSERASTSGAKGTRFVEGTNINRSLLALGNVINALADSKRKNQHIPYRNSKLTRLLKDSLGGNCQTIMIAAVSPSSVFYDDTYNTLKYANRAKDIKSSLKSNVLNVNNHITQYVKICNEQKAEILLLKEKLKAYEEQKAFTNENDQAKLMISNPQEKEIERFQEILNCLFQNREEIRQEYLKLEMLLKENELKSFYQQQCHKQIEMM
T1 sequence (P02550 whole entry partner): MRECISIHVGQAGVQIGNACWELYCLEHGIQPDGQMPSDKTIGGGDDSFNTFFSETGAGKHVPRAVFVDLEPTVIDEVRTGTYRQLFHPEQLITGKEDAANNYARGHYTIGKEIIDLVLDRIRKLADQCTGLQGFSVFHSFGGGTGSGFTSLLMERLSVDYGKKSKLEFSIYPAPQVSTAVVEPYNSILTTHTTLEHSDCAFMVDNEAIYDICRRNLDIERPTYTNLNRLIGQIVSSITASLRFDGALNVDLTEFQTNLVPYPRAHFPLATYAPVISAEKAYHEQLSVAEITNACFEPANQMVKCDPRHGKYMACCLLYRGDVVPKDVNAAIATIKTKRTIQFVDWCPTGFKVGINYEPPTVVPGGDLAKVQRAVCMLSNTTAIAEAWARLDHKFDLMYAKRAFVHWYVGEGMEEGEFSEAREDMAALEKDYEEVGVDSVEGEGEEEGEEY
T1 sequence (P02554 whole entry partner): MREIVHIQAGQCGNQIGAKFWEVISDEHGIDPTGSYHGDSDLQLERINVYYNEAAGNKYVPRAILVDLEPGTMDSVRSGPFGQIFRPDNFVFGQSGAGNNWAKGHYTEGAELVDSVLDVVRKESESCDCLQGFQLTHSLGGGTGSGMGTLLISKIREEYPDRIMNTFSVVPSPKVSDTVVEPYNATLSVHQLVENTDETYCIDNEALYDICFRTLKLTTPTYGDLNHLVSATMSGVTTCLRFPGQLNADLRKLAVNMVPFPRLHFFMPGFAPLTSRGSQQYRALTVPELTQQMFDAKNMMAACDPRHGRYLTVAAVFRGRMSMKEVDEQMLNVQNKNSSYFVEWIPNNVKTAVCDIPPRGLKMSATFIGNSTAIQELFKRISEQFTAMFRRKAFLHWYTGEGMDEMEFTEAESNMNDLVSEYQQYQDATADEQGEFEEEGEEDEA

IC50	SMILES
0.141 µM	C[C@@H]1CN(c2cccc(NC(=O)c3ccc(S(=O)(=O)C4(C)COC4)cc3N3CCC4(CC3)CC4)n2)CCO1 [Example 2-3, (R)-N-(6-(2-Methylmorpholino)pyridin-2-yl)-4-((3-methyloxetan-3-yl)sulfonyl)-2-(6-azaspiro[2.5]octan-6-yl)benzamide]
0.038 µM	C[C@@H]1CN(c2cccc(NC(=O)c3ccc(S(=O)(=O)C4COC4)cc3N3CCC4(CC3)CC4)n2)CCO1 [Example 2-4, (R)-N-(6-(2-Methylmorpholino)pyridin-2-yl)-4-(oxetan-3-ylsulfonyl)-2-(6-azaspiro[2.5]octan-6-yl)benzamide]
0.051 µM	C[C@@H]1CN(c2cccc(NC(=O)c3ccc(S(=O)(=O)C(C)(C)CO)cc3N3CCC4(CC3)CC4)n2)CCO1 [Example 2-5, (R)-4-((1-Hydroxy-2-methylpropan-2-yl)sulfonyl)-N-(6-(2-methylmorpholino)pyridin-2-yl)-2-(6-azaspiro[2.5]octan-6-yl)benzamide]
0.11 µM	C[C@@H]1CN(c2cccc(NC(=O)c3ccc(S(=O)(=O)CC(C)(C)O)cc3N3CCC4(CC3)CC4)n2)CCO1 [Example 2-6, (R)-4-((2-Hydroxy-2-methylpropyl)sulfonyl)-N-(6-(2-methylmorpholino)pyridin-2-yl)-2-(6-azaspiro[2.5]octan-6-yl)benzamide]
0.103 µM	Cc1cc(NC(=O)c2ccc(S(=O)(=O)CCO)cc2N2CCC3(CC2)CC3)nc(N2CCO[C@H](C)C2)c1 [Example 2-7, (R)-4-((2-Hydroxyethyl)sulfonyl)-N-(4-methyl-6-(2-methylmorpholino)pyridin-2-yl)-2-(6-azaspiro[2.5]octan-6-yl)benzamide]
0.046 µM	CC1(S(=O)(=O)Nc2ccc(C(=O)Nc3cccc(N4CCC[C@@H](O)C4)n3)c(N3CCC4(CC3)CC4)c2)CC1 [Example 3, (R)-N-(6-(3-Hydroxypiperidin-1-yl)pyridin-2-yl)-4-((1-methylcyclopropane)-1-sulfonamido)-2-(6-azaspiro[2.5]octan-6-yl)benzamide]
0.056 µM	CC1(S(=O)(=O)Nc2ccc(C(=O)Nc3cccc(N4CCC[C@H](O)C4)n3)c(N3CCC4(CC3)CC4)c2)CC1 [Example 3-1, (S)-N-(6-(3-Hydroxypiperidin-1-yl)pyridin-2-yl)-4-((1-methylcyclopropane)-1-sulfonamido)-2-(6-azaspiro[2.5]octan-6-yl)benzamide]
0.359 µM	CC1(O)CCN(c2cccc(NC(=O)c3ccc(NS(=O)(=O)C4(C)CC4)cc3N3CCC4(CC3)CC4)n2)C1 (stereo not shown) [Example 3-2, N-(6-(3-Hydroxy-3-methylpyrrolidin-1-yl)pyridin-2-yl)-4-((1-methylcyclopropane)-1-sulfonamido)-2-(6-azaspiro[2.5]octan-6-yl)benzamide]
0.096 µM	CC(C)(C)NS(=O)(=O)c1ccc(C(=O)Nc2cccc(N3CCC[C@H](O)C3)n2)c(N2CCC3(CC2)CC3)c1 [Example 3-3, (S)-4-(N-(tert-Butyl)sulfamoyl)-N-(6-(3-hydroxypiperidin-1-yl)pyridin-2-yl)-2-(6-azaspiro[2.5]octan-6-yl)benzamide]
0.149 µM	CC(C)(C)NS(=O)(=O)c1ccc(C(=O)Nc2cccc(NC3(CO)COC3)n2)c(N2CCC3(CC2)CC3)c1 [Example 3-4, 4-(N-(tert-Butyl)sulfamoyl)-N-(6-((3-(hydroxymethyl)oxetan-3-yl)amino)pyridin-2-yl)-2-(6-azaspiro[2.5]octan-6-yl)benzamide]
0.045 µM	CC1(S(=O)(=O)Nc2ccc(C(=O)Nc3cccc(N4CCC(F)(F)C4)n3)c(N3CCC4(CC3)CC4)c2)CC1 [Example 3-5, N-(6-(3,3-Difluoropyrrolidin-1-yl)pyridin-2-yl)-4-((1-methylcyclopropane)-1-sulfonamido)-2-(6-azaspiro[2.5]octan-6-yl)benzamide]
0.086 µM	CC1(S(=O)(=O)Nc2ccc(C(=O)Nc3cccc(N4CCC[C@@H](CO)C4)n3)c(N3CCC4(CC3)CC4)c2)CC1 [Example 3-6, (R)-N-(6-(3-(Hydroxymethyl)piperidin-1-yl)pyridin-2-yl)-4-((1-methylcyclopropane)-1-sulfonamido)-2-(6-azaspiro[2.5]octan-6-yl)benzamide]
0.065 µM	CC1(S(=O)(=O)Nc2ccc(C(=O)Nc3cccc(N4CCC[C@H](CO)C4)n3)c(N3CCC4(CC3)CC4)c2)CC1 [Example 3-7, (S)-N-(6-(3-(Hydroxymethyl)piperidin-1-yl)pyridin-2-yl)-4-((1-methylcyclopropane)-1-sulfonamido)-2-(6-azaspiro[2.5]octan-6-yl)benzamide]
0.243 µM	CC1(O)CCN(c2cccc(NC(=O)c3ccc(NS(=O)(=O)C4(C)CC4)cc3N3CCC4(CC3)CC4)n2)CC1 [Example 3-8, N-(6-(4-Hydroxy-4-methylpiperidin-1-yl)pyridin-2-yl)-4-((1-methylcyclopropane)-1-sulfonamido)-2-(6-azaspiro[2.5]octan-6-yl)benzamide]
0.175 µM	CC1(S(=O)(=O)Nc2ccc(C(=O)Nc3cccc(N4CCC[C@](C)(O)C4)n3)c(N3CCC4(CC3)CC4)c2)CC1 [Example 3-9, (S)-N-(6-(3-Hydroxy-3-methylpiperidin-1-yl)pyridin-2-yl)-4-((1-methylcyclopropane)-1-sulfonamido)-2-(6-azaspiro[2.5]octan-6-yl)benzamide]
0.143 µM	CC1(S(=O)(=O)Nc2ccc(C(=O)Nc3cccc(N4CCC[C@@](C)(O)C4)n3)c(N3CCC4(CC3)CC4)c2)CC1 [Example 3-10, (R)-N-(6-(3-Hydroxy-3-methylpiperidin-1-yl)pyridin-2-yl)-4-((1-methylcyclopropane)-1-sulfonamido)-2-(6-azaspiro[2.5]octan-6-yl)benzamide]
0.073 µM	CC1(S(=O)(=O)Nc2ccc(C(=O)Nc3cccc(N4CCO[C@@H](CO)C4)n3)c(N3CCC4(CC3)CC4)c2)CC1 [Example 3-11, (R)-N-(6-(2-(Hydroxymethyl)morpholino)pyridin-2-yl)-4-((1-methylcyclopropane)-1-sulfonamido)-2-(6-azaspiro[2.5]octan-6-yl)benzamide]
0.081 µM	CC1(S(=O)(=O)Nc2ccc(C(=O)Nc3cccc(N4CCO[C@H](CO)C4)n3)c(N3CCC4(CC3)CC4)c2)CC1 [Example 3-12, (S)-N-(6-(2-(Hydroxymethyl)morpholino)pyridin-2-yl)-4-((1-methylcyclopropane)-1-sulfonamido)-2-(6-azaspiro[2.5]octan-6-yl)benzamide]
0.373 µM	CC1(F)CCN(c2cccc(NC(=O)c3ccc(NS(=O)(=O)C4(C)CC4)cc3N3CCC4(CC3)CC4)n2)CC1 [Example 3-13, N-(6-(4-Fluoro-4-methylpiperidin-1-yl)pyridin-2-yl)-4-((1-methylcyclopropane)-1-sulfonamido)-2-(6-azaspiro[2.5]octan-6-yl)benzamide]
0.038 µM	CC1(S(=O)(=O)Nc2ccc(C(=O)Nc3cccc(N4CCCC(F)(F)C4)n3)c(N3CCC4(CC3)CC4)c2)CC1 [Example 3-14, N-(6-(3,3-Difluoropiperidin-1-yl)pyridin-2-yl)-4-((1-methylcyclopropane)-1-sulfonamido)-2-(6-azaspiro[2.5]octan-6-yl)benzamide]
0.033 µM	CC1(S(=O)(=O)Nc2ccc(C(=O)Nc3cccc(N4CCc5cc(Cl)ccc54)n3)c(N3CCC4(CC3)CC4)c2)CC1 [Example 3-15, N-(6-(5-Chloroindolin-1-yl)pyridin-2-yl)-4-((1-methylcyclopropane)-1-sulfonamido)-2-(6-azaspiro[2.5]octan-6-yl)benzamide]
0.058 µM	CC1(S(=O)(=O)Nc2ccc(C(=O)Nc3cccc(N4CC(F)C4)n3)c(N3CCC4(CC3)CC4)c2)CC1 [Example 3-16, N-(6-(3-Fluoroazetidin-1-yl)pyridin-2-yl)-4-((1-methylcyclopropane)-1-sulfonamido)-2-(6-azaspiro[2.5]octan-6-yl)benzamide]
0.034 µM	CC1(S(=O)(=O)Nc2ccc(C(=O)Nc3cccc(N4CCCCC4)n3)c(N3CCC4(CC3)CC4)c2)CC1 [Example 3-17, 4-((1-Methylcyclopropane)-1-sulfonamido)-N-(6-(piperidin-1-yl)pyridin-2-yl)-2-(6-azaspiro[2.5]octan-6-yl)benzamide]
0.048 µM	CC1(S(=O)(=O)Nc2ccc(C(=O)Nc3cccc(N4CC(F)(F)C4)n3)c(N3CCC4(CC3)CC4)c2)CC1 [Example 3-18, N-(6-(3,3-Difluoroazetidin-1-yl)pyridin-2-yl)-4-((1-methylcyclopropane)-1-sulfonamido)-2-(6-azaspiro[2.5]octan-6-yl)benzamide]
0.103 µM	Cc1cc(NC(=O)c2ccc(NS(=O)(=O)C3(C)CC3)cc2N2CCC3(CC2)CC3)nc(N2CC(F)(F)C2)c1 [Example 3-19, N-(6-(3,3-Difluoroazetidin-1-yl)-4-methylpyridin-2-yl)-4-((1-methylcyclopropane)-1-sulfonamido)-2-(6-azaspiro[2.5]octan-6-yl)benzamide]
0.05 µM	CC1(S(=O)(=O)Nc2ccc(C(=O)Nc3cccc(N4CCC5(CC5)C4)n3)c(N3CCC4(CC3)CC4)c2)CC1 [Example 3-20, N-(6-(5-Azaspiro[2.4]heptan-5-yl)pyridin-2-yl)-4-((1-methylcyclopropane)-1-sulfonamido)-2-(6-azaspiro[2.5]octan-6-yl)benzamide]
0.091 µM	CC1(S(=O)(=O)Nc2ccc(C(=O)Nc3cccc(N4CCC(C#N)CC4)n3)c(N3CCC4(CC3)CC4)c2)CC1 [Example 3-21, N-(6-(4-Cyanopiperidin-1-yl)pyridin-2-yl)-4-((1-methylcyclopropane)-1-sulfonamido)-2-(6-azaspiro[2.5]octan-6-yl)benzamide]
0.086 µM	CC1(S(=O)(=O)Nc2ccc(C(=O)Nc3cccc(N4CCCC(C#N)C4)n3)c(N3CCC4(CC3)CC4)c2)CC1 (stereo not shown) [Example 3-22, N-(6-(3-Cyanopiperidin-1-yl)pyridin-2-yl)-4-((1-methylcyclopropane)-1-sulfonamido)-2-(6-azaspiro[2.5]octan-6-yl)benzamide]

— patent US12459932B2, “KIF18A inhibitors” (AMGEN INC., priority 2018, dated 2025)
